Key:
[1] = system: murine aortic ring; assay: Mouse aortic ring model of angiogenic sprout formation; assay type: cell-based; conditions: 0.5 μM in medium; sprouts counted after 7 days; murine aortic rings
Experimental: Aortic ring assay: Thoracic aortas dissected from cervically dislocated 180-200 g male wistar rats (Harlan Laboratories) or 6 week old C57BL/6 mice (Charles River) were sliced into 0.5 mm sections and incubated overnight in serum free OptiMEM (Invitrogen) at 37° C. Aortic rings were embedded in type I collagen (1 mg/ml) in E4 media (Invitrogen) containing either GST, syndecan-2 mutant proteins or peritoneal exudates in 48 well plates. Wells were supplemented with OptiMEM with 1% FBS and 10 ng/ml VEGF (R and D systems, 30 ng/ml for murine rings) and incubated at 37° C., 10% CO2. Angiogenic sprouts from rat and mouse aortas were counted after 4 days and 8 days respectively (Method based on that of Nicosia and Ottinetti (Laboratory Investigation 63:115-122, 1990) and modified in De Rossi et al. (Journal of Genetic Syndromes & Gene Therapy 4, 2013).
The peptide was added to the medium and sprouts were counted after 7 days in culture. Data represents the mean of at least 15 rings and error bars represent the SEM. Significance is indicated on the basis of a non-paired students t test (p***<0.001).

[2] = system: choroidal neovascularisation; assay: Laser-induced choroidal neovascularisation in vivo; set-up: species or system mouse; conditions: C57BL mice; 1 μM; 7 days post injury; injected into the eyes
Experimental: 6 Week old C57BL mice were anaesthetised on day 0 and 3 laser burns were applied to both eyes. On day 3, 1 μl of 4 μM QM107 (hS2pep), PBS or 4 μM scrambled control were injected into both eyes of the animals. On day 7 the choroidal neovascularisation, in response to the laser lesion, were observed by fluorescein angiography. The area of Choroidal neovascularistaion was then calculated by analysis of images using IMAGEJ.
C57BL mice were treated as described above and it is evident from FIG. 11 that around 30% less choroidal neovascularisation occurs in mice treated with 1 μM of QM107 7 days post injury as compared to animals treated with PBS or the scrambled control. N=10 for each condition and significance was calculated using a students t test.

[3] = system: Choroid explants; assay: Choroid explant model of angiogenic sprout formation; assay type: cell-based, mouse; conditions: doses 0.1 μM to 1 μM, counted after 7 days
Experimental: 18 day old C57BL6 mice were sacrificed by cervical dislocation and eyes were enucleated prior to an incision being made 1 mm below the iris and removal of the iris, cornea lens and retina. The choroid is then removed flattened and cut into 1 mm pieces prior to incubation in serum free OptiMEM o/n at 37° C. Choroid explants are then embedded in a Collagen I matrix containing scrambled or experimental peptides and supplemented with OptiMEM containing 10 ng/ml murine VEGFA. Angiogenic sprouts were counted after 7 days.
The choroid is a vascular bed beneath the retinal pigment epithelium and supplies oxygen and nutrients to the outer retina. The choroid can be readily isolated from the murine eye and when placed in a suitable medium and after 4-6 days in culture vessel sprouting occurs and can be quantified. This assay recapitulates Choroidal neovascularisation, the cause of central vision loss in wet Age Related Macular Degeneration. […] Data is the mean number of sprouts from at least 6 Choroid explants from a total of 8 animals. Error bars represent the SEM and significance was calculated using a students t test p<0.05.

[4] = system: HUVECs; assay: Capillary network (tubule) formation of HUVECs on growth factor depleted Matrigel; assay type: cell-based, human; conditions: 1 μm, FIG. 3B
Experimental: 80,000 HUVECs were seeded into 24 well plates coated with 100 μl/well of growth factor depleted Matrigel (BD Sciences) in the presence of the human syndecan-2 peptides scr or hS2pep at the concentrations indicated (scr corresponds to a scrambled control peptide). Tubule formation was monitored by time lapse microscopy using an Olympus IX81 microscope with a controlled environment chamber set at 37° C., 10% CO2. Images were captured every 30 minutes using a Hamamatsu Orca ER digital camera and processed using Cell^M software (Olympus). (A) Phase contrast images of tubules after 6 hours in culture. (B) Branch points were counted on at least four representative images. A branch point is defined at which two or more tubules meet.
To investigate the inhibitory effect of peptides derived from human syndecan-2, 80,000 HUVECs were seeded into 24 well plates coated with 100 ul/well of growth factor depleted Matrigel in the presence of scr or hS2pep. Tubule formation was monitored by time lapse microscopy (FIG. 3A).

[5] = system: HUVECs; assay: Scratch wound cell migration assay on HUVEC monolayers; assay type: cell-based, human
Experimental: In this assay scratches are made in confluent monolayers of HUVECS and the cells incubated in the presence or absence of different concentrations of the human syndecan-2 peptides. Cell migration is measured by time lapse microscopy using an Olympus IX81 microscope with a controlled environment chamber set at 37° C., 10% CO2. Images were captured every 30 minutes using a Hamamatsu Orca ER digital camera and processed using Cell^M software (Olympus). […]
In one assay, scratches were made in confluent monolayers of HUVECs and the cells incubated in the presence or absence of different concentrations of hS2pep (human syndecan-2 peptide) and scrambled peptides (FIG. 1A).
Scratch wound migration assays: Scratch wound migration assays were performed on confluent monolayers of ECs. Wounds were made using a pipette tip, and fusion proteins were added to the medium and images were captured every 30 minutes for 12 hours by time lapse microscopy using an Olympus IX81 microscope. Percentage wound closure was calculated and individual cells tracked using Image J.

[6] = system: Matrigel plugs; assay: Matrigel plug assay (haemoglobin content); assay type: in vivo, mouse; conditions: 50 μM incorporated in plug; C57BL6 mice; vs scrambled peptide control or PBS
Experimental: Mice were sacrificed after three days and the plugs excised, photographed and incubated overnight in PBS. Haemoglobin was quantified using Drabkin's reagent (Sigma) as described by the manufacturer. All experiments were performed under the UK legislation for the protection of animals, and at the end of all in vivo procedures involving anaesthesia, animals were humanely killed by cervical dislocation in accordance with UK Home Office regulations. Excised plugs were frozen in liquid nitrogen and subsequently embedded in ice cold OCT, 15 μm sections were made using a cryostat at −20° C. Following fixation with 4% PFA for 5 min and blocking with 10% Normal Goat Serum for 15 min, sections were stained for nuclei (DRAQ5) and the EC marker CD31 overnight. Images were captured using a PASCAL laser-scanning confocal microscope (Carl Zeiss, 10× objective). Quantification was performed using the IMARIS software and Photoshop (Adobe), ECs were identified by co-localization of nuclei with CD31 staining.
Data is from 2 plugs per animal and is the mean of two measurements.

[7] = system: murine skin ECs; assay: Endothelial cell invasion through Collagen I (transwell); assay type: cell-based; conditions: 1 uM, counted after 24 hours, vs scr
Experimental: 50,000 skin ECs were seeded and cells which had passed through the matrix were counted after 24 hours. Cells were stained with Calcein (5 μM) and cells imaged using an Olympus IX81 inverted microscope and a Hamamatuse Orca ER digital camera. Fluorescent cells are shown in (A) and the % migrated cells compared to the untreated control is shown in B. Cell numbers were counted from four independent images and error bars represent the SEM. Significance was calculated using 1 way ANOVA with Tukey's multiple comparison p<0.0001).
Invasion through the extracellular matrix is another indicator of angiogenesis. Collagen I matrices containing 1 uM of hS2pep and scr were prepared in an […] transwell. 50,000 murine skin ECs were seeded and cells which had passed through the matrix were counted after 24 hours.
Invasion assay: Invasion assays through collagen and Matrigel matrices were performed in 24-well plates with transwell inserts (Millipore; 8 μm pore size, polyester (PET) membrane). […] Invasion was measured after 6 hours after which time gels were removed with a cotton swab, the filter washed in PBS and stained with calcein (Invitrogen) and the number of cells attached to the filter was counted.

hS2pep: Peptide derived from human syndecan-2 (SEQ ID NO 6); development name QM107 (PAEEDTNVYTEKHSDSLF; hS2pep peptide derived from human syndecan-2)
Angiogenic sprout formation [1]: inhibited | Reduction of choroidal neovascularisation (area) compared to PBS or scrambled control [2]: around 30% | Formation of angiogenic sprouts [3]: inhibit the formation of angiogenic sprouts | Capillary network formation (number of branch points) [4]: inhibited | Scratch wound closure ([5]; 1 uM, HUVECs, FIG. 1B): greatly reduced | HUVEC cell migration ([5]; after 4 hours in culture, vs scrambled peptide): significantly inhibited | Haemoglobin content of Matrigel plugs [6]: greatly reduced | Invasion through collagen I [7]: inhibited
